Key:
Test in all cases: Test B pre-/postemergence plant response
Assay type in all cases: in vivo
[1] = test system: Surinam grass (Brachiaria decumbens); details: Postemergence
Method in brief: (§1)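 Response scores were assigned visually after 13 to 15 days in a greenhouse, comparing treated pots with controls on a 0–100 scale where 100 denotes complete control. Preemergence treatments went onto freshly seeded loam/sand soil; postemergence treatments onto plants 2 to 18 cm tall.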

kochia (Kochia scoparia) = test system: kochia (Kochia scoparia)
Method in brief: as §1

[2] = test system: johnsongrass (Sorghum halepense)
Method in brief: as §1

[3] = test system: velvetleaf (Abutilon theophrasti); details: for Plant response rating, Velvetleaf: Postemergence
Method in brief: as §1

wild oat (Avena fatua) = test system: wild oat (Avena fatua)
Method in brief: as §1

soybean (Glycine max) = details: for Plant response rating, Soybean: Postemergence
Method in brief: as §1

[4] = test system: lambsquarters (Chenopodium album)
Method in brief: as §1

[5] = test system: green foxtail (Setaria viridis)
Method in brief: as §1

[6] = test system: morningglory (Ipomoea coccinea)
Method in brief: as §1

[7] = test system: downy bromegrass (Bromus tectorum)
Method in brief: as §1

[8] = test system: woolly cupgrass (Eriochloa villosa)
Method in brief: as §1

corn (Zea mays) = test system: corn (Zea mays)
Method in brief: as §1

[9] = test system: yellow nutsedge (Cyperus esculentus)
Method in brief: as §1

[10] = test system: pigweed (Amaranthus retroflexus)
Method in brief: as §1

[11] = test system: goosegrass (Eleusine indica)
Method in brief: as §1

[12] = test system: blackgrass (Alopecurus myosuroides)
Method in brief: as §1

[13] = test system: large crabgrass (Digitaria sanguinalis)
Method in brief: as §1

[14] = 125 g ai/ha, scale 0 to 100 (0 no effect, 100 complete control)
[15] = 250 g ai/ha, scale 0 to 100 (0 no effect, 100 complete control)
[16] = 31 g ai/ha, postemergence, scale 0 to 100, 0 is no effect, 100 is complete control
[17] = 62 g ai/ha, postemergence, 0 is no effect, 100 is complete control, 13 to 15 days
[18] = Postemergence, 125 g ai/ha, scale 0 to 100 (0 no effect, 100 complete control)
[19] = Postemergence, 250 g ai/ha, scale 0 to 100 (0 no effect, 100 complete control)
[20] = 31 g ai/ha, 0 to 100 scale (0 no effect, 100 complete control)
[21] = 250 g ai/ha, scale 0 to 100 (0 no effect, 100 complete control), 13 to 15 days
[22] = 62 g ai/ha, scale 0 to 100 (0 no effect, 100 complete control)
[23] = Postemergence, 31 g ai/ha, 0 to 100 scale (0 no effect, 100 complete control)
[24] = Postemergence, 250 g ai/ha, scale 0 to 100 (0 no effect, 100 complete control), 13 to 15 days
[25] = Postemergence, 62 g ai/ha, scale 0 to 100 (0 no effect, 100 complete control)

## COCCn1c(-c2ccco2)ncc(C(=O)C2=C(O)CCCC2=O)c1=O [Compound 111]
[1]; [14]
  Plant response rating, Surinam Grass: 70
[1]; [15]
  Plant response rating, Surinam Grass: 80
Kochia (Kochia scoparia); [16]
  Plant response rating, Kochia: 80
Kochia (Kochia scoparia); [17]
  Kochia plant response rating (0 to 100 scale): 100
Kochia (Kochia scoparia); [18]
  Plant response rating, Kochia: 100
Kochia (Kochia scoparia); [19]
  Plant response rating, Kochia: 100
[2]; [16]
  Plant response rating, Johnsongrass: 10
[2]; [17]
  Johnsongrass plant response rating (0 to 100 scale): 15
[2]; [18]
  Plant response rating, Johnsongrass: 20
[2]; [19]
  Plant response rating, Johnsongrass: 40
[3]; [17]
  Velvetleaf plant response rating (0 to 100 scale): 98
[3]; [14]
  Plant response rating, Velvetleaf: 100
[3]; [15]
  Plant response rating, Velvetleaf: 100
Wild oat (Avena fatua); [16]
  Plant response rating, Oat, Wild: 0
Wild oat (Avena fatua); [17]
  Oat, Wild plant response rating (0 to 100 scale): 0
Wild oat (Avena fatua); [18]
  Plant response rating, Oat, Wild: 0
Wild oat (Avena fatua); [19]
  Plant response rating, Oat, Wild: 10
Soybean (Glycine max); [17]
  Soybean plant response rating (0 to 100 scale): 80
Soybean (Glycine max); [14]
  Plant response rating, Soybean: 95
Soybean (Glycine max); [15]
  Plant response rating, Soybean: 98
[4]; [16]
  Plant response rating, Lambsquarters: 98
[4]; [17]
  Lambsquarters plant response rating (0 to 100 scale): 98
[4]; [18]
  Plant response rating, Lambsquarters: 100
[4]; [19]
  Plant response rating, Lambsquarters: 100
[5]; [16]
  Plant response rating, Foxtail, Green: 40
[5]; [17]
  Foxtail, Green plant response rating (0 to 100 scale): 60
[5]; [18]
  Plant response rating, Foxtail, Green: 65
[5]; [19]
  Plant response rating, Foxtail, Green: 70
[6]; [16]
  Plant response rating, Morningglory: 100
[6]; [17]
  Morningglory plant response rating (0 to 100 scale): 100
[6]; [18]
  Plant response rating, Morningglory: 100
[6]; [19]
  Plant response rating, Morningglory: 100
[7]; [16]
  Plant response rating, Bromegrass, Downy: 0
[7]; [17]
  Bromegrass, Downy plant response rating (0 to 100 scale): 0
[7]; [18]
  Plant response rating, Bromegrass, Downy: 5
[7]; [19]
  Plant response rating, Bromegrass, Downy: 10
[8]; [16]
  Plant response rating, Cupgrass, Woolly: 40
[8]; [17]
  Cupgrass, Woolly plant response rating (0 to 100 scale): 50
[8]; [18]
  Plant response rating, Cupgrass, Woolly: 75
[8]; [19]
  Plant response rating, Cupgrass, Woolly: 75
Corn (Zea mays); [16]
  Plant response rating, Corn: 10
Corn (Zea mays); [17]
  Corn plant response rating (0 to 100 scale): 45
Corn (Zea mays); [18]
  Plant response rating, Corn: 55
Corn (Zea mays); [19]
  Plant response rating, Corn: 60
[9]; [16]
  Plant response rating, Nutsedge, Yellow: 65
[9]; [17]
  Nutsedge, Yellow plant response rating (0 to 100 scale): 75
[9]; [18]
  Plant response rating, Nutsedge, Yellow: 80
[9]; [19]
  Plant response rating, Nutsedge, Yellow: 85
[10]; [16]
  Plant response rating, Pigweed: 95
[10]; [17]
  Pigweed plant response rating (0 to 100 scale): 100
[10]; [18]
  Plant response rating, Pigweed: 100
[10]; [19]
  Plant response rating, Pigweed: 100
[11]; [16]
  Plant response rating, Goosegrass: 70
[11]; [17]
  Goosegrass plant response rating (0 to 100 scale): 70
[11]; [18]
  Plant response rating, Goosegrass: 85
[11]; [19]
  Plant response rating, Goosegrass: 85
[12]; [16]
  Plant response rating, Blackgrass: 5
[12]; [17]
  Blackgrass plant response rating (0 to 100 scale): 5
[12]; [18]
  Plant response rating, Blackgrass: 25
[12]; [19]
  Plant response rating, Blackgrass: 40
[13]; [16]
  Plant response rating, Crabgrass, Large: 70
[13]; [17]
  Crabgrass, Large plant response rating (0 to 100 scale): 75
[13]; [18]
  Plant response rating, Crabgrass, Large: 80
[13]; [19]
  Plant response rating, Crabgrass, Large: 85

## CCCn1c(-c2ccccc2)ncc(C(=O)C2=C(O)C3CCC(C3)C2=O)c1=O (stereo not shown) [Compound 226]
[1]; [20]
  Plant response rating, Surinam Grass: 75
[1]; [21]
  Plant response rating, Surinam Grass: 85
[1]; [22]
  Plant response rating, Surinam Grass: 75
Kochia (Kochia scoparia); [23]
  Plant response rating, Kochia: 80
Kochia (Kochia scoparia); [18]
  Plant response rating, Kochia: 100
Kochia (Kochia scoparia); [24]
  Plant response rating, Kochia: 100
Kochia (Kochia scoparia); [25]
  Plant response rating, Kochia: 85
[2]; [23]
  Plant response rating, Johnsongrass: 85
[2]; [18]
  Plant response rating, Johnsongrass: 100
[2]; [24]
  Plant response rating, Johnsongrass: 100
[2]; [25]
  Plant response rating, Johnsongrass: 85
[3]; [20]
  Plant response rating, Velvetleaf: 85
[3]; [21]
  Plant response rating, Velvetleaf: 98
[3]; [22]
  Plant response rating, Velvetleaf: 85
Wild oat (Avena fatua); [23]
  Plant response rating, Oat, Wild: 25
Wild oat (Avena fatua); [24]
  Plant response rating, Oat, Wild: 50
Wild oat (Avena fatua); [25]
  Plant response rating, Oat, Wild: 30
Soybean (Glycine max); [20]
  Plant response rating, Soybean: 95
Soybean (Glycine max); [21]
  Plant response rating, Soybean: 100
Soybean (Glycine max); [22]
  Plant response rating, Soybean: 98
[4]; [23]
  Plant response rating, Lambsquarters: 90
[4]; [18]
  Plant response rating, Lambsquarters: 95
[4]; [24]
  Plant response rating, Lambsquarters: 98
[4]; [25]
  Plant response rating, Lambsquarters: 90
[5]; [23]
  Plant response rating, Foxtail, Green: 70
[5]; [18]
  Plant response rating, Foxtail, Green: 90
[5]; [24]
  Plant response rating, Foxtail, Green: 90
[5]; [25]
  Plant response rating, Foxtail, Green: 80
[6]; [23]
  Plant response rating, Morningglory: 98
[6]; [18]
  Plant response rating, Morningglory: 100
[6]; [24]
  Plant response rating, Morningglory: 100
[6]; [25]
  Plant response rating, Morningglory: 98
[7]; [23]
  Plant response rating, Bromegrass, Downy: 0
[7]; [18]
  Plant response rating, Bromegrass, Downy: 5
[7]; [24]
  Plant response rating, Bromegrass, Downy: 30
[7]; [25]
  Plant response rating, Bromegrass, Downy: 0
[8]; [23]
  Plant response rating, Cupgrass, Woolly: 80
[8]; [18]
  Plant response rating, Cupgrass, Woolly: 85
[8]; [24]
  Plant response rating, Cupgrass, Woolly: 95
[8]; [25]
  Plant response rating, Cupgrass, Woolly: 80
Corn (Zea mays); [23]
  Plant response rating, Corn: 75
Corn (Zea mays); [18]
  Plant response rating, Corn: 98
Corn (Zea mays); [24]
  Plant response rating, Corn: 98
Corn (Zea mays); [25]
  Plant response rating, Corn: 80
[9]; [23]
  Plant response rating, Nutsedge, Yellow: 55
[9]; [18]
  Plant response rating, Nutsedge, Yellow: 70
[9]; [24]
  Plant response rating, Nutsedge, Yellow: 75
[9]; [25]
  Plant response rating, Nutsedge, Yellow: 65
[10]; [23]
  Plant response rating, Pigweed: 75
[10]; [24]
  Plant response rating, Pigweed: 98
[10]; [25]
  Plant response rating, Pigweed: 85
[11]; [23]
  Plant response rating, Goosegrass: 80
[11]; [18]
  Plant response rating, Goosegrass: 85
[11]; [24]
  Plant response rating, Goosegrass: 85
[11]; [25]
  Plant response rating, Goosegrass: 80
[12]; [23]
  Plant response rating, Blackgrass: 5
[12]; [18]
  Plant response rating, Blackgrass: 40
[12]; [24]
  Plant response rating, Blackgrass: 60
[12]; [25]
  Plant response rating, Blackgrass: 30
[13]; [23]
  Plant response rating, Crabgrass, Large: 85
[13]; [18]
  Plant response rating, Crabgrass, Large: 95
[13]; [24]
  Plant response rating, Crabgrass, Large: 98
[13]; [25]
  Plant response rating, Crabgrass, Large: 85

Reference: patent publication US8952024B2, “Herbicidal pyrimidone derivatives” (E I du Pont de Nemours and Company, priority 2009, dated 2015)
